Assay results reported in US20080009025A1, “PROTEIN KINASE REGULATION” (priority 1999, published 2008).
Where a SMILES comes first, the peptide text is derived from it.

Key:
p70 S6K = assay: IGF1-induced activation and Thr412 phosphorylation of HA-p70 S6K in co-transfected 293 cells; format: cell-based, human
Experimental: FIG. 3. PIF inhibits p70 S6K activation and phosphorylation at Thr252 and Thr412. 293 cells were co-transfected with constructs expressing the wild type (wt) full length HA-p70 S6K (A) or the full length HA-T412E p70 S6K (B) with either GST-PIF, GST-F977A-PIF, or GST. 24 h post transfection the cells were serum starved for 16 h and them stimulated for 40 min with 100 nM IGF 1. The cells were lysed and HA-p70 S6K was immunoprecipitated and assayed as described in methods. Protein from each lysate (10 μg for the HA blots or 20 μg for the T412-P blot) was electrophoresed on a 10% SDS/polyacrylamide gel and immunoblotted using HA-antibody or the T412-P antibody. The T412-P antibody was incubated with either the synthetic peptide (10 μg/ml) corresponding to residues 401 to 418 of p70 S6K phosphorylated at Thr412 (phosph-412E peptide), or the unphosphorylated peptide (de-phospho-Thr412 peptide). The T412-P antibody consistently recognises a protein termed “non specific band” in cell lysates which migrate at (75 kDa) derived from non transfected and transfected cells. […] It is not co-immunoprecipitated with HA-p70 S6K (date not shown). The HA-p70 S6K activities shown are the average ±SEM for a single experiment carried out in triplicate. Similar results were obtained in 8 separate experiments (A) and 2 experiments (B). The immunoblotting was carried out in 3 separate experiments with similar results.
Transient Transfection Experiments. The DNA constructs encoding for the wild type and mutant forms of HA-p70 S6K in the pMT2 vector used in this study have been described previously. […] The constructs used to express GST-PIF and the mutant GST-F977A-PIF [22] are in the pEBG2T vector. The empty pEBG2T vector was used to express GST protein in control experiments. DNA constructs used in this study were purified from bacteria using the Qiagen plasmid Mega kit according to the manufacturer's protocol.
293 cells cultured on 10 cm diameter dishes in Dulbecco's Modified Eagle's Medium containing 10% (by vol) foetal bovine serum, were transfected with 2 μg of DNA construct encoding either wild type or mutant HA-p70 S6K or HA-PKBα, and 10 μg of DNA construct encoding either GST-PIF, GST-F977A-PIF, GST, Myc-PDK1, kinase-dead Myc-PDK1, or the empty pCMV5 vector using a modified calcium phosphate method. 24 h post transfection the cells were deprived of serum for 16 h, and exposed to IGF1 (100 nM) for the time indicated. The cells were lysed in 1 ml of lysis buffer (50 mM Tris/HCl pH 7.5, 1 mM EDTA, 1 mM EGTA, 1% (by vol) Triton X-100, 1 mM sodium orthovanadate, 10 mM sodium β-glycerophosphate, 50 mM NaF, 5 mM sodium pyrophosphate, 1 μM microcystin-LR, 0.27 M sucrose and protease cocktail tablets), cleared by centrifugation, and 50 μg of protein was subjected to immunoprecipitation with anti HA monoclonal antibody. The protein concentrations of the lysates were determined by the Bradford method.
Kinase assays. The HA-p70 S6K or HA-PKBα immunoprecipitates were washed and assayed for kinase activity using the peptide Crosstide (GRPRTSSFAEG) as described previously for PKBα [28]. One unit of activity, U, was that amount which catalysed the phosphorylation of 1 nmol of substrate in one minute.
Immunoblotting for dephosphorylated and Thr412-phosphorylated p70 S6 kinase. Cell lysates were made 1% SDS and the indicated amounts of protein were subjected to SDS/Polyacrylamide gel electrophoresis, subsequently transferred to nitrocellulose and immunoblotted using the indicated monoclonal antibody or the T412-P phospho-specific antibody (0.4 μg/ml) in 50 mM Tris/HCl pH7.5, 0.15M NaCl, 0.5% (by vol) Tween and 10% (by mass) skimmed milk. Detection was performed using the enhanced chemiluminescence reagent (Amersham Pharmacia Biotech).

PDK1 = target: T1, PDK1 (Homo sapiens, UniProt O15530); assay: Surface plasmon resonance binding of His-PDK1 to immobilised p70 S6K; settings: 10 μM peptide
T1 construct: Full length PDK1 (residues 1-556); made in house; host or cells: 293 cells
T1 sequence (O15530 52-556): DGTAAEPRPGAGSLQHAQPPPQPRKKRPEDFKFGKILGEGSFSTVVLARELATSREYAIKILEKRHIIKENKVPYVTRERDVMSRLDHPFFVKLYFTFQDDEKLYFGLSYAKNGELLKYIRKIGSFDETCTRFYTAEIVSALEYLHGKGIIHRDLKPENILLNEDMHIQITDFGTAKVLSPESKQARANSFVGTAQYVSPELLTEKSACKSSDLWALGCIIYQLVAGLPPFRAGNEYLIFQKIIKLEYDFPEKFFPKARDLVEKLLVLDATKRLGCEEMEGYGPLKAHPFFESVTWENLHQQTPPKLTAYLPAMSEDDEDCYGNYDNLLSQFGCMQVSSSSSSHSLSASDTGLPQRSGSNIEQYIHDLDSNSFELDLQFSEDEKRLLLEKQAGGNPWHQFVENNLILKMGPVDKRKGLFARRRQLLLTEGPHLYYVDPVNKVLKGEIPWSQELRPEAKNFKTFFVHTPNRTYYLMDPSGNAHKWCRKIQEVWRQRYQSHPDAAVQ
Experimental: FIG. 6. Quantitative analysis of the binding of PDK1 to p70 S6K. Surface Plasmon Resonance measurements were carried out on a BiaCore instrument as described in the Methods. His-PDK1 was injected at the indicated concentrations over (A) 2000 RUs of p70 S6K-T2 (closed squares), or 412Ep70 S6K-T2 (closed circles) which was immobolised by amine coupling to a CM5 Sensorchip. Experiments carried out in the presence of either 10 μM wild type PIF peptide (hexagons) or 10 μM D978A mutant PIF peptide (triangles) are indicated. The responses at steady state binding were recorded. All data are single determinations from a representative experiment that was repeated at least 3 times with similar results.
Surface plasmon resonance measurements of PDK1 binding to p70 S6 kinase. p70 S6K-T2 and T412Ep70S6K-T2 mutant were amine coupled to a CM5 sensor chip (BIAcore AB) according to the manufacturer's instructions. The indicated concentrations of His-PDK1 was injected over the chip at a flow rate of 30 μl/min and the steady-state binding determined, in the presence or absence of PIF peptide. The apparent equilibrium dissociation constant (Kd) for the binding of His-PDK1 to p70 S6 kinase was determined by fitting the increase in steady-state binding upon increased PDK1 concentration to a rectangular hyperbola using SigmaPlot 4 (SPSS Inc). […]

Compound | basal HA-p70 S6K activity (p70 S6K; 293 cells co-expressing HA-p70 S6K, unstimulated) | HA-p70 S6K activity after IGF1 stimulation (p70 S6K; 293 cells, 100 nM IGF1 40 min) | IGF1-induced phosphorylation of HA-p70 S6K at Thr412 (p70 S6K; 293 cells, T412-P antibody) | IGF1 induced activation and phosphorylation at Thr412 of the p70 S6K-T2 mutant (p70 S6K; 293 cells, data not shown) | effect on the interaction between PDK1 and 412E-p70 S6K-T2 (PDK1)
GST-PIF: glutathione S-transferase fused to the last 77 residues of PRK2 (PIF) | virtually undetectable | only a very slight increase | failed to induce | abolished | 
CC[C@H](C)[C@H](NC(=O)[C@H](Cc1ccc(O)cc1)NC(=O)[C@H](CC(=O)O)NC(=O)[C@H](Cc1ccccc1)NC(=O)[C@H](CC(=O)O)NC(=O)[C@H](CCCNC(=N)N)NC(=O)[C@H](Cc1ccccc1)NC(=O)[C@H](CCSC)NC(=O)[C@H](CCC(=O)O)NC(=O)[C@H](CCC(N)=O)NC(=O)[C@H](CCC(=O)O)NC(=O)[C@H](CCC(=O)O)NC(=O)[C@H](CCC(=O)O)NC(=O)[C@H](CO)NC(=O)[C@H](CC(C)C)NC(=O)[C@@H](NC(=O)[C@H](CCCNC(=N)N)NC(=O)[C@@H]1CCCN1C(=O)[C@H](CCC(=O)O)NC(=O)[C@@H](N)CCCNC(=N)N)[C@@H](C)CC)C(=O)N[C@@H](C)C(=O)N[C@@H](CC(=O)O)C(=O)N[C@@H](Cc1c[nH]c2ccccc12)C(=O)N[C@@H](CS)C(=O)O [PIFtide] (H-REPRILSEEEQEMFRDFDYIADWC-OH; N-terminus and C-terminus assumed) |  |  |  |  | abolished
